Values of other authors as cited in US8987285B2, “Pharmaceutical compositions, dosage forms and new forms of the compound of formula (I), and methods of use thereof” (Portola Pharmaceuticals, Inc., priority 2010, dated 2015).

Settings: cited from earlier work
In the case of O=C(O)c1ccc2ccccc2c1 [2-naphthoic acid], the LogP is listed as 3.28 and the “pKa(s) A = acid” value is listed as “A 3.884”.
For C=CCc1ccccc1OCC(O)CNC(C)C (centres unmarked) [Alprenolol], the “pKa(s) B = Base” value is given as “B 9.477”.
In the case of NC12CC3CC(CC(C3)C1)C2 [Amantadine], the LogP is listed as 2.41 and the “pKa(s) B = Base” value is listed as “B 10.48”.
For CN(C)CCC=C1c2ccccc2CCc2ccccc21 [Amitriptyline], the “pKa(s) B = Base” value is listed as “B 9.3”.
For CCN(CC)Cc1cc(Nc2ccnc3cc(Cl)ccc23)ccc1O [Amodiaquin], the LogP is listed as 4.2 and the “pKa(s) A = acid” value is listed as “A 11.49”.
For NS(=O)(=O)c1cc2c(cc1C(F)(F)F)NC(Cc1ccccc1)NS2(=O)=O (centres unmarked) [Bendroflumethiazide], the LogP is listed as 1.95.
In the case of CCOC(=O)c1ccc(N)cc1 [Benzocaine], the “pKa(s) B = Base” value is listed as “B 2.39”.
In the case of NS(=O)(=O)c1cc2c(cc1Cl)N=C(CSCc1ccccc1)NS2(=O)=O [Benzthiazide], the LogP is given as 1.73.
For CC(C(=O)O)c1ccc2c(c1)[nH]c1ccc(Cl)cc12 (centres unmarked) [Carprofen], the LogP is listed as 4.29 and the “pKa(s) A = acid” value is listed as “A 4.247”.
In the case of CN(C)CC/C=C1/c2ccccc2Sc2ccc(Cl)cc21 [Chlorprothixene], the LogP is listed as 5.48 and the “pKa(s) B = Base” value is listed as “B 9.52”.
For CNCCCN1c2ccccc2CCc2ccccc21 [Desipramine], the “pKa(s) B = Base” value is given as “B 10.08”.
For COc1ccc([C@@H]2Sc3ccccc3N(CCN(C)C)C(=O)[C@@H]2OC(C)=O)cc1 [Diltiazem], the LogP is listed as 2.89.
In the case of NC(N)=Nc1nc(CSCCC(N)=NS(N)(=O)=O)cs1 [Famotidine], the LogP is listed as −0.81, the “pKa(s) A = acid” value is listed as 11.01 and the “pKa(s) B = Base” value is listed as 6.77.
For O=C(O)c1ccccc1Nc1cccc(C(F)(F)F)c1 [Flufenamic Acid], the LogP is listed as 5.56 and the “pKa(s) A = acid” value is listed as “A 3.968”.
For CC1CCc2cc(F)cc3c(=O)c(C(=O)O)cn1c23 (centres unmarked) [Flumequine], the LogP is given as 1.72 and the “pKa(s) A = acid” value is given as “A 6.37”.
In the case of CNCCC(Oc1ccc(C(F)(F)F)cc1)c1ccccc1 (centres unmarked) [Fluoxetine], the “pKa(s) B = Base” value is given as “B 10.09”.
In the case of CC(C(=O)O)c1ccc(-c2ccccc2)c(F)c1 (centres unmarked) [Flurbiprofen], the “pKa(s) A = acid” value is given as “A 4.01”.
In the case of Nc1nc2ncc(CNc3ccc(C(=O)N[C@@H](CCC(=O)O)C(=O)O)cc3)nc2c(=O)[nH]1 [Folic Acid], the LogP is given as 0.2 and the “pKa(s) B = Base” value is given as 2.33.
In the case of Oc1cccc2ccccc12 [Form 1-naphthol, 1-naphthol], the “pKa(s) A = acid” value is given as “A 9.175”.
For O=C(CCCN1CCC(O)(c2ccc(Cl)cc2)CC1)c1ccc(F)cc1 [Haloperidol], the “pKa(s) B = Base” value is listed as “B 8.42”.
In the case of CN(C)CCCN1c2ccccc2CCc2ccccc21 [Imipramine], the “pKa(s) B = Base” value is listed as “B 9.54”.
For CNCCCC12CCC(c3ccccc31)c1ccccc12 [Maprotiline], the LogP is given as 4.85 and the “pKa(s) B = Base” value is given as “B 10.33”.
For Cc1ccc(Cl)c(Nc2ccccc2C(=O)O)c1Cl [Meclofenamic Acid], the LogP is listed as 5.9 and the “pKa(s) A = acid” value is listed as “A 4.10”.
For Cc1cccc(Nc2ccccc2C(=O)O)c1C [Mefenamic Acid], the “pKa(s) A = acid” value is listed as “A 4.221”.
In the case of CCN(CC)CCNC(=O)c1cc(Cl)c(N)cc1OC [Metoclopramide], the “pKa(s) B = Base” value is given as “B 9.24”.
For Clc1ccc(COC(Cn2ccnc2)c2ccc(Cl)cc2Cl)c(Cl)c1 (centres unmarked) [Miconazole], the “pKa(s) B = Base” value is listed as “B 6.316”.
In the case of CC(C)(C)NCC(O)COc1cccc2c1CC(O)C(O)C2 (centres unmarked) [Nadolol], the “pKa(s) B = Base” value is listed as “B 9.696”.
In the case of O=C(O)c1cccnc1Nc1cccc(C(F)(F)F)c1 [Niflumic Acid], the LogP is given as 3.88 and the “pKa(s) B = Base” value is given as 2.26.
In the case of O=C1CN(/N=C/c2ccc([N+](=O)[O-])o2)C(=O)N1 [Nitrofurantoin], the LogP is given as −0.54 and the “pKa(s) A = acid” value is given as “A 7.05”.
For CCn1cc(C(=O)O)c(=O)c2cc(F)c(N3CCNCC3)cc21 [Norfloxacin], the LogP is listed as −1.03, the “pKa(s) A = acid” value is listed as “A 6.324 B” and the “pKa(s) B = Base” value is listed as 8.575.
For CNCCC=C1c2ccccc2CCc2ccccc21 [Nortriptyline], the “pKa(s) B = Base” value is given as “B 10.21”.
In the case of Cc1ccccc1C(OCCN(C)C)c1ccccc1 (centres unmarked) [Orphenadrine], the LogP is given as 3.84 and the “pKa(s) B = Base” value is given as “B 9.037”.
For CC(=O)Nc1ccc(O)cc1 [Paracetamol], the “pKa(s) A = acid” value is given as “A 9.52”.
